# Reference: patent publication US11083735B2, “Methods for treating sleep disorders, sleep disturbances, and related symptoms using aminosterol compositions” (Enterin, Inc., priority 2017, dated 2021)
# Tests used:
# [1] = system: C. elegans model of PD; settings: cited from earlier work
# [2] = Pharmacokinetics of orally administered squalamine (ENT-01) in Stage 1; type: in vivo, human; settings: for AUC0-8 hr / AUC0-16 hr / Tmax (Median Value) / Cmax: Stage 1, oral; for Cmax: squalamine ion, mean
# Description: Pharmakokinetics: PK data were collected on the 10 patients enrolled in Stage 1 and 10 patients enrolled in Stage 2 to determine the extent of systemic absorption. In Stage 1, PK data were obtained at each visit, pre-medication, at 1, 2, 4, 8 and 24 hours (Table 14). In Stage 2, PK was measured on days 1 and 6 of the randomization period pre-medication, at 1, 2, 4 and 8 hours (Table 15). […] Hao et al. 2003). The mean Cmax, Tmax and T1/2 and AUC of the squalamine ion following squalamine (ENT-01) oral dosing for Stage 1 patients. […] The mean Cmax, Tmax and T1/2 and AUC of the squalamine ion following squalamine (ENT-01) oral dosing for Stage 2 patients. The PK analyses are only approximate, as the lower limit of the validated concentration range was 0.5 ng/ml.
# [3] = system: patients with PD and constipation; experiment: Phase 2 trial Stage 1 (single escalating dose): prokinetic response (CSBM within 24 hours); type: in vivo, human
# Description: FIGS. 16A-16B show prokinetic activity of squalamine (ENT-01, a synthetic squalamine salt comprising squalamine as the active ion). […] Patients with baseline CSBM<1 required a higher dose (mean, 192 mg) of squalamine than patients with CSBM≥1 (mean, 120 mg).
# Tolerability limits included diarrhea or vomiting.
# [4] = Preclinical oral studies in rats (bioavailability, portal blood, tolerability)
# [5] = Preclinical oral studies in dogs (bioavailability, tolerability)
# [6] = system: patients with PD and constipation; experiment: Phase 2 trial Stage 1: adverse events
# Description: In Stage 1, ten (10) PD patients received a single escalating dose of squalamine (ENT-01) every 3-7 days beginning at 25 mg and continuing up to 200 mg or the limit of tolerability, followed by 2-weeks of wash-out. Duration of this part of the trial was 22-57 days. The 10 subjects in the sentinel group were assigned to Cohort 1 and participated in 8 single dosing periods. Tolerability limits included diarrhea or vomiting.
# Each dose period was staggered, so that subjects 1-2 were administered a single dose of the drug at the lowest dose of 25 mg. Once 24 hours have elapsed, and provided there are no safety concerns, the patient was sent home and brought back on day 4-8 for the next dose. During the days the subjects are home, they completed the daily diaries and e-mailed them to the study coordinators. Subjects 3-10 were dosed after the first 2 subjects have been observed for 72 hours, i.e. on Day 4. Subjects 1-2 were also brought back on Day 4-8 and given a single dose of 50 mg. Once another 24 hours have elapsed and provided there are no safety concerns, the patients were all sent home and instructed to return on Day 7 for the next dosing level. This single dosing regimen was continued until each subject was given a single dose of 200 mg or has reached a dose limiting toxicity (DLT). DLT was the dose which induces repeated vomiting, diarrhea, abdominal pain or symptomatic postural hypotension within 24 hours of dosing.
# Adverse events were coded using the current version of MedDRA. Severity of AEs were assessed by investigators according to CTCAE (v4.03): Grade 1 is labeled as Mild, Grade 2 as Moderate, and Grade 3 and above as Severe. […] The number (percentage) of subjects who experienced an AE during escalation and fixed dosing periods were summarized by dose level and overall for each stage. The denominator for calculating the percentages were based on the number of subjects ever exposed to each dose and overall.
# [7] = Stage 1, 10 dosed, Unrelated to ENT-01
structure (smiles),measurement,setting,value
CC(C)[C@@H](CC[C@@H](C)[C@H]1CC[C@H]2[C@@H]3[C@H](O)C[C@H]4C[C@@H](NCCCNCCCCN)CC[C@]4(C)[C@H]3CC[C@]12C)OS(=O)(=O)O [squalamine],muscle paralysis,[1]; C. elegans model of PD (Perni et al. 2017),complete reversal of muscle paralysis
"CC(C)[C@@H](CC[C@@H](C)[C@H]1CC[C@H]2[C@@H]3[C@H](O)C[C@H]4C[C@@H](NCCCNCCCCN)CC[C@]4(C)[C@H]3CC[C@]12C)OS(=O)(=O)O (single isomer, unassigned; ent-01) [ENT-01]",approximate oral bioavailability,"[2]; Stage 1, oral dosing up to 200 mg (114 mg/m^2), compared with prior phase 1 IV pharmacokinetic data",about 0.1%
same,AUC0-8 hr,[2]; dose 25 mg,10.8 ng·h/mL
same,AUC0-16 hr,[2]; dose 25 mg,19.6 ng·h/mL
same,Tmax (Median Value),[2]; dose 25 mg,1.0 h
same,Cmax,[2]; dose 25 mg,2.84 ng/mL
same,AUC0-8 hr,[2]; dose 50 mg,18.5 ng·h/mL
same,AUC0-16 hr,[2]; dose 50 mg,33.1 ng·h/mL
same,Tmax (Median Value),[2]; dose 50 mg,2.0 h
same,Cmax,[2]; dose 50 mg,3.73 ng/mL
same,AUC0-8 hr,[2]; dose 75 mg,18.4 ng·h/mL
same,AUC0-16 hr,[2]; dose 75 mg,29.8 ng·h/mL
same,Tmax (Median Value),[2]; dose 75 mg,2.0 h
same,Cmax,[2]; dose 75 mg,4.33 ng/mL
same,AUC0-8 hr,[2]; dose 100 mg,29.6 ng·h/mL
same,AUC0-16 hr,[2]; dose 100 mg,51.5 ng·h/mL
same,Tmax (Median Value),[2]; dose 100 mg,2.0 h
same,Cmax,[2]; dose 100 mg,6.18 ng/mL
same,AUC0-8 hr,[2]; dose 125 mg,43.1 ng·h/mL
same,AUC0-16 hr,[2]; dose 125 mg,77.7 ng·h/mL
same,Tmax (Median Value),[2]; dose 125 mg,2.0 h
same,Cmax,[2]; dose 125 mg,9.63 ng/mL
same,AUC0-8 hr,[2]; dose 150 mg,31.5 ng·h/mL
same,AUC0-16 hr,[2]; dose 150 mg,64.0 ng·h/mL
same,Tmax (Median Value),[2]; dose 150 mg,2.0 h
same,Cmax,[2]; dose 150 mg,6.27 ng/mL
same,AUC0-8 hr,[2]; dose 175 mg,49.7 ng·h/mL
same,AUC0-16 hr,[2]; dose 175 mg,91.2 ng·h/mL
same,Tmax (Median Value),[2]; dose 175 mg,2.0 h
same,Cmax,[2]; dose 175 mg,10.3 ng/mL
same,AUC0-8 hr,[2]; dose 200 mg,78.3 ng·h/mL
same,AUC0-16 hr,[2]; dose 200 mg,157 ng·h/mL
same,Tmax (Median Value),[2]; dose 200 mg,2.0 h
same,Cmax,[2]; dose 200 mg,15.1 ng/mL
same,oral bio-availability,[2]; estimated from PK of intravenously administered squalamine in prior clinical studies,less than 0.3%
same,cumulative response rate,[3]; 25 mg,25%
same,cumulative response rate,[3]; 200 mg (maximum),80%
same,absorption from the intestine,[4]; portal blood concentrations following oral dosing of radioactive ENT-01 to rats,low
same,tolerability,[4]; rats,well tolerated
same,oral bioavailability,"[4]; rats, preclinical studies",about 0.1%
same,tolerability,[5],well tolerated
same,oral bioavailability,[5]; preclinical studies,about 0.1%
same,formation of aggregates of αS,[1]; in vivo (Perni et al. 2017),inhibit the formation of aggregates
same,AEs confined to the GI tract,[6]; Stage 1,88%
same,"Diarrhea, patients","[6]; Stage 1, 4/10",40%
same,"nausea, patients","[6]; Stage 1, 4/10",40%
same,"Abdominal pain, Mild","[6]; Stage 1, 10 dosed","2(20) n, %"
same,"Abdominal pain, Moderate","[6]; Stage 1, 10 dosed","3(30) n, %"
same,"Blood in urine, Moderate","[6]; Stage 1, 10 dosed","0 n, %"
same,"Diarrhea, Mild","[6]; Stage 1, 10 dosed","1(10) n, %"
same,"Diarrhea, Moderate","[6]; Stage 1, 10 dosed","3(30) n, %"
same,"Diarrhea, Severe","[6]; Stage 1, 10 dosed","0 n, %"
same,"Difficulty falling asleep, Mild","[6]; Stage 1, 10 dosed","0 n, %"
same,"Difficulty falling asleep, Moderate","[6]; Stage 1, 10 dosed","0 n, %"
same,"Dizziness, Mild","[6]; Stage 1, 10 dosed","0 n, %"
same,"Dizziness, Moderate","[6]; Stage 1, 10 dosed","0 n, %"
same,"Flatulence, Mild","[6]; Stage 1, 10 dosed","2(20) n, %"
same,"Flatulence, Moderate","[6]; Stage 1, 10 dosed","0 n, %"
same,"Headache, Mild","[6]; Stage 1, 10 dosed","1(10) n, %"
same,"Headache, Moderate","[6]; Stage 1, 10 dosed","0 n, %"
same,"Increased urinary frequency, Mild","[6]; Stage 1, 10 dosed","0 n, %"
same,"Increased urinary frequency, Moderate","[6]; Stage 1, 10 dosed","0 n, %"
same,"Loss of appetite, Moderate","[6]; Stage 1, 10 dosed","0 n, %"
same,"Lower GI bleed, Severe","[6]; Stage 1, 10 dosed","0 n, %"
same,"Nausea, Mild","[6]; Stage 1, 10 dosed","4(40) n, %"
same,"Nausea, Moderate","[6]; Stage 1, 10 dosed","0 n, %"
same,"Skin lesions-rash, Mild","[6]; Stage 1, 10 dosed","0 n, %"
same,"Skin lesions-rash, Moderate","[6]; Stage 1, 10 dosed","0 n, %"
same,"Urinary retention, Mild","[6]; Stage 1, 10 dosed","0 n, %"
same,"Urinary retention, Moderate","[6]; Stage 1, 10 dosed","0 n, %"
same,"Vomiting, Mild","[6]; Stage 1, 10 dosed","1(10) n, %"
same,"Vomiting, Moderate","[6]; Stage 1, 10 dosed","0 n, %"
same,"Worsening acid reflux, Mild","[6]; Stage 1, 10 dosed","0 n, %"
same,"Worsening acid reflux, Moderate","[6]; Stage 1, 10 dosed","0 n, %"
same,"Worsening hemorrhoid, Mild","[6]; Stage 1, 10 dosed","0 n, %"
same,"Worsening hemorrhoid, Moderate","[6]; Stage 1, 10 dosed","0 n, %"
same,"Blood in urine, Mild",[6]; [7],"1(10) n, %"
same,"Loss of appetite, Mild",[6]; [7],"1(10) n, %"
same,Common adverse events by dose: Diarrhea,"[6]; Stage 1, dose 25 mg",1
same,Common adverse events by dose: Nausea,"[6]; Stage 1, dose 25 mg",0
same,Common adverse events by dose: Vomiting,"[6]; Stage 1, dose 25 mg",0
same,Common adverse events by dose: Diarrhea,"[6]; Stage 1, dose 50 mg",1
same,Common adverse events by dose: Nausea,"[6]; Stage 1, dose 50 mg",0
same,Common adverse events by dose: Vomiting,"[6]; Stage 1, dose 50 mg",0
same,Common adverse events by dose: Diarrhea,"[6]; Stage 1, dose 75 mg",1
same,Common adverse events by dose: Nausea,"[6]; Stage 1, dose 75 mg",0
same,Common adverse events by dose: Vomiting,"[6]; Stage 1, dose 75 mg",0
same,Common adverse events by dose: Diarrhea,"[6]; Stage 1, dose 100 mg",0
same,Common adverse events by dose: Nausea,"[6]; Stage 1, dose 100 mg",1
same,Common adverse events by dose: Vomiting,"[6]; Stage 1, dose 100 mg",1
same,Common adverse events by dose: Diarrhea,"[6]; Stage 1, dose 125 mg",1
same,Common adverse events by dose: Nausea,"[6]; Stage 1, dose 125 mg",2
same,Common adverse events by dose: Vomiting,"[6]; Stage 1, dose 125 mg",1
same,Common adverse events by dose: Diarrhea,"[6]; Stage 1, dose 150 mg",1
same,Common adverse events by dose: Nausea,"[6]; Stage 1, dose 150 mg",0
same,Common adverse events by dose: Vomiting,"[6]; Stage 1, dose 150 mg",0
same,Common adverse events by dose: Diarrhea,"[6]; Stage 1, dose 175 mg",1
same,Common adverse events by dose: Nausea,"[6]; Stage 1, dose 175 mg",1
same,Common adverse events by dose: Vomiting,"[6]; Stage 1, dose 175 mg",0
same,Common adverse events by dose: Diarrhea,"[6]; Stage 1, dose 200 mg",0
same,Common adverse events by dose: Nausea,"[6]; Stage 1, dose 200 mg",2
same,Common adverse events by dose: Vomiting,"[6]; Stage 1, dose 200 mg",0
